Results from US12239132B2, “Compounds and methods for increasing soil nutrient availability” (SOUND AGRICULTURE COMPANY, priority 2018, dated 2025).

Key:
[1] = system: soil consortia cultures; experiment: Acetylene reduction method in soil consortia nitrogen free cultures; format: cell-based; conditions: 25 ug/mL, Burks-N, 72 h, control nd
Experimental: One flask culture per soil received an AB09 treatment and the other received a control treatment of water. After 72 h of growth, 5 mL of each culture were analyzed for nitrogenase activity using the acetylene reduction method. […] Soil from agricultural areas was air dried and sieved with a 2 mm sieve. Five hundred milligrams of dried, sieved soil was added to 50 mL of Burks-N media in a 250 mL baffled flask. AB09 was added to 25 ug/mL and water was added in equivalent amounts for controls. Flasks were topped with a foam plug and incubated at 30 C, shaking at 100 rpm. After 72 h, 5 mL of the soil culture was transferred to 20 mL autosampler vials and analyzed for ethylene gas with the acetylene reduction technique and GC/MS as described as above.

[2] = system: Azotobacter vinlandii; experiment: Acetylene reduction method to measure nitrogen fixation in Azotobacter vinlandii; format: cell-based; conditions: increasing amounts of AB09, Burks-N media, 48 h growth, dose response
Description: Azotobacter vinlandii is a model free-living nitrogen fixing bacteria, or diazotroph, commonly found in soils. The acetylene reduction technique was used to determine if the nitrogen fixation activity of A. vinlandii is altered due to AB09 treatment. The acetylene reduction technique relies on the non-specific activity of the nitrogenase enzyme (which is responsible for reducing atmospheric dinitrogen gas N2 to ammonia NH3), to reduce acetylene to ethylene. Acetylene and ethylene gases were detected and quantified by GC/MS.
Liquid flask cultures of A. vinlandii were grown in nitrogen-free growth media (Burks-N) and supplemented with varying amounts of AB09 (0 ug/mL culture received a mock treatment of water). Samples were analyzed for acetylene reduction to ethylene after 48 h of growth (cell concentration was normalized prior to the addition of acetylene).
Azotobacter vinlandii cultures starting from OD600=0.02 were grown in liquid N-free bacterial growth media (Burks-N) with varying amounts of AB09 shaking at 28 C. Three flasks of bacteria were grown for each concentration of AB09. After 48 h, cultures were normalized OD600=0.1 and 5 mL of the normalized culture was transferred to gas-tight autosampler vials. […] After 3 hours of incubation (with shaking at 28 C), the gas headspace of the vials was measured via GC/MS for acetylene and ethylene. […]

[3] = system: soil consortia cultures; experiment: Phosphate solubilization in soil-inoculated NBRIP cultures; format: cell-based
Experimental: To select for the native soil microbial consortia that solubilize phosphorus, a small quantity of soil was inoculated into flask cultures of NBRIP media. Flasks were treated with increasing amounts of AB09 and grown at room temperature on orbital shakers for 4 days. The cleared supernatant of the soil cultures were quantified for available phosphorus using the malachite green method.
FIG. 3. AB09 induced phosphate solubilization activity occurs in a dose-dependent manner in soil consortia cultures. 50 mL of NBRIP growth medium was added to 250 mL baffled flasks, containing 500 mg of 2 mm particle-sized soil, to select for phosphate solubilizing microbes. Flasks with sterilized foam caps were placed on orbital shakers at 110 RPM for 4 days at room temperature. Orthophosphate was measured using the malachite-green phosphate method.
50 mL of NBRIP growth medium was added to 250 mL baffled flasks, containing 500 mg of 2 mm particle-sized soil, to select for phosphate solubilizing microbes. AB09 stock solution (10 mg/mL) was prepared in distilled water. Untreated controls received no AB09. […]
Flasks with sterilized foam caps were placed on orbital shakers at 110 RPM for 4 days at room temperature. […] Supernatant from samples were removed and placed into new microcentrifuge tubes for orthophosphate quantification using the malachite green method.

[4] = system: wheat; experiment: Wheat plant growth assay (seed treatment); format: in vivo; conditions: seed treatment 1 ug/seed, four days after emergence, vs mock treated
Experimental: To determine the effect of AB09 on plants, AB09 was seed treated at a rate of 1 ug/seed onto wheat seeds. Plants were analyzed four days after emergence. […] AB09 was applied to wheat seeds, which were planted in sand and shoots were measured for height at four days post-emergence. Control seeds received a mock treatment. The WinRhizo Pro root scanner and software were used to obtain root length and surface area. AB09 at a rate of lug/seed in acetone was treated onto seeds and the acetone was allowed to fully evaporate. Control seeds were mock treated with acetone. Seeds were planted in wet sand in 50 mL tubes sand, placed under fluorescent lights, and watered with tap water. Seedlings were measured four days post-emergence for shoot height. The WinRhizo Pro root scanner and software were used to obtain root length and surface area.

Structure (SMILES): CC1=CC(Oc2c(C)occc2=O)OC1=O (stereo not drawn) [AB09, maltol lactone]
- % Ethylene (nitrogenase activity) ([1]; Alpha soil): 14.5%
- % Ethylene (nitrogenase activity) ([1]; Bennet soil): 0.7%
- % Ethylene (nitrogenase activity) ([1]; U of I soil): 4.2%
- ethylene gas from acetylene reduction (nitrogenase activity) [2]: increased amounts of ethylene gas
- increase of phosphate concentration over the untreated control ([3]; highest treatment 25 ug/mL, 4 days, room temperature): 2-3 fold
- ability of soil consortia cultures to solubilize phosphorus ([3]; increasing amounts of AB09, 4 days): enhanced by AB09 in a dose-responsive manner
- root length [4]: increase
- root surface area [4]: increase
- shoot height [4]: increase
